Like-named read-outs stand apart in the source and are kept apart here.
Assay type: in vivo, human
Conditions: for BI 187004 Plasma Cday15: 24 h after last dose; for BI 187004 Plasma Cday15 / fe0–24 / CL/F SS / fe0–24,SS / BI 187004 Plasma Cday2 / Cmax: gMean (%gCV); for BI 187004 Plasma Cday2: immediately after second dose; for CL renal / Vd/F / AUC / AUC(0-t) / half-life / Cmax / Tmax: human, oral; for CL renal: plasma and urine; for Vd/F / AUC / AUC(0-t) / half-life / Cmax / Tmax: plasma; for Tmax: t max, median (min–max)

SMILES: N#Cc1ccc2c(c1)[C@H]1CCCN(C(=O)c3ccc4[nH]cnc4c3)[C@H]1C2 [BI 187004]
- BI 187004 Plasma Cday15 (10 mg): 322 (37.4) nmol/L
- fe0–24 (10 mg, Day 1): 5.72 (27.2) %
- CL/F SS (10 mg, Day 14): 2.01 (28.2) L/h
- fe0–24,SS (10 mg, Day 14): 10.3 (26.6) %
- BI 187004 Plasma Cday2 (10 mg): 156 (56.1) nmol/L
- BI 187004 Plasma Cday15 (20 mg): 520 (25.6) nmol/L
- fe0–24 (20 mg, Day 1): 6.14 (20.8) %
- CL/F SS (20 mg, Day 14): 2.53 (24.7) L/h
- fe0–24,SS (20 mg, Day 14): 9.83 (24.1) %
- BI 187004 Plasma Cday2 (20 mg): 291 (23.3) nmol/L
- BI 187004 Plasma Cday15 (40 mg): 744 (25.8) nmol/L
- fe0–24 (40 mg, Day 1): 3.82 (27.3) %
- CL/F SS (40 mg, Day 14): 3.16 (21.1) L/h
- fe0–24,SS (40 mg, Day 14): 6.31 (26.7) %
- BI 187004 Plasma Cday2 (40 mg): 511 (23.9) nmol/L
- BI 187004 Plasma Cday15 (80 mg): 1,360 (24.8) nmol/L
- fe0–24 (80 mg, Day 1): 4.15 (39.3) %
- CL/F SS (80 mg, Day 14): 3.97 (26.4) L/h
- fe0–24,SS (80 mg, Day 14): 6.05 (27.0) %
- BI 187004 Plasma Cday2 (80 mg): 1,020 (30.0) nmol/L
- BI 187004 Plasma Cday15 (160 mg): 2,430 (54.7) nmol/L
- fe0–24 (160 mg, Day 1): 5.12 (11.6) %
- CL/F SS (160 mg, Day 14): 3.69 (37.9) L/h
- fe0–24,SS (160 mg, Day 14): 6.82 (21.6) %
- BI 187004 Plasma Cday2 (160 mg): 1,660 (57.7) nmol/L
- BI 187004 Plasma Cday15 (240 mg): 2,280 (76.0) nmol/L
- fe0–24 (240 mg, Day 1): 4.87 (24.4) %
- fe0–24,SS (240 mg, Day 14): 5.83 (22.7) %
- BI 187004 Plasma Cday2 (240 mg): 2,420 (50.6) nmol/L
- BI 187004 Plasma Cday15 (360 mg): 2,780 (19.6) nmol/L
- fe0–24 (360 mg, Day 1): 5.11 (22.4) %
- CL/F SS (360 mg, Day 14): 6.47 (12.3) L/h
- fe0–24,SS (360 mg, Day 14): 6.46 (8.01) %
- BI 187004 Plasma Cday2 (360 mg): 2,660 (36.5) nmol/L
- dose proportionality of Cmax and AUCτ,ss (10 to 360 mg): increased non-proportionally
- time of absorption (10–360 mg): ≤ 2 h
- gMean oral clearance (CL/F,ss), range over dose groups (10–360 mg, day 14): 2.01 to 6.47 L/h
- accumulation in plasma (between days 1 and 14): limited
- CL renal (10 mg): 3.72 mL/min
- CL renal (20 mg): 4.3 mL/min
- CL renal (40 mg): 2.68 mL/min
- CL renal (80 mg): 3.47 mL/min
- CL renal (160 mg): 3.78 mL/min
- CL renal (240 mg): 4.38 mL/min
- CL renal (360 mg): 6.4 mL/min
- Vd/F: 195 to 1160 L
- AUC (10 mg): 14.5 µM·h
- AUC(0-t) (10 mg): 7.5 µM·h
- Vd/F (10 mg): 308 L
- half-life (10 mg): 106 h
- Cmax (10 mg, C max, 10 mg, Day 1): 681 nM
- Cmax (10 mg, C max,SS, 10 mg, Day 14): 1240 nM
- Tmax (10 mg, 10 mg, Day 1): 2 h
- Tmax (10 mg, SS, 10 mg, Day 14): 0.834 h
- AUC (20 mg): 23 µM·h
- AUC(0-t) (20 mg): 13.9 µM·h
- Vd/F (20 mg): 253 L
- half-life (20 mg): 69.2 h
- Cmax (20 mg, C max, 20 mg, Day 1): 1370 nM
- Cmax (20 mg, C max,SS, 20 mg, Day 14): 1940 nM
- Tmax (20 mg, 20 mg, Day 1): 0.834 h
- Tmax (20 mg, SS, 20 mg, Day 14): 0.834 h
- AUC (40 mg): 26.9 µM·h
- AUC(0-t) (40 mg): 27.7 µM·h
- Vd/F (40 mg): 195 L
- half-life (40 mg): 42.8 h
- Cmax (40 mg, C max, 40 mg, Day 1): 2920 nM
- Cmax (40 mg, C max,SS, 40 mg, Day 14): 3400 nM
- Tmax (40 mg, 40 mg, Day 1): 1 h
